row,melting point [°C],Structure (SMILES)
1,171,"Cc1cc(N)nc(CCc2nc3cc(-c4ccc(S(=O)(=O)N5CCCC5)cc4)cnc3[nH]2)c1 [compound 18, 4-Methyl-6-(2-{6-[4-(pyrrolidine-1-sulfonyl)-phenyl]-3H-imidazo[4,5-b]pyridin-2-yl}-ethyl)-pyridin-2-ylamine]"
2,54,CC(=O)O.Cc1cc(N)nc(CCc2nc3cccnc3[nH]2)c1
3,181,"Cc1cc(N)nc(CCc2nc3cc(-c4cccc(OCc5ccccc5)c4)cnc3[nH]2)c1 [compound 13, 6-{2-[6-(3-Benzyloxy-phenyl)-3H-imidazo[4,5-b]pyridin-2-yl]-ethyl}-4-methyl-pyridin-2-ylamine]"
4,225,"Cc1cc(N)nc(CCc2nc3cc(-c4ccc(OCc5ccccc5)cc4)cnc3[nH]2)c1 [compound 15, 6-{2-[6-(4-Benzyloxy-phenyl)-3H-imidazo[4,5-b]pyridin-2-yl]-ethyl}-4-methyl-pyridin-2-ylamine]"
5,45 to 47,"Cc1cc(N)nc(CCc2nc3cccnc3[nH]2)c1 [compound 1, 2-[2-(2-Amino-4-methylpyridin-6-yl)ethyl]-3H-imidazo[4,5-b]pyridine]"
6,135,"Cc1cc(N)nc(CCc2nc3cc(-c4ccc(S(=O)(=O)N5CCN(C)CC5)cc4)cnc3[nH]2)c1 [compound 21, 4-Methyl-6-(2-{6-[4-(4-methyl-piperazine-1-sulfonyl)-phenyl]-3H-imidazo[4,5-b]pyridin-2-yl}-ethyl)-pyridin-2-ylamine]"
7,48,"Cc1cc(N)nc(CC(C)c2nc3cccnc3[nH]2)c1 (racemic) [compound 2, (R,S)-2-[3-(2-Amino-4-methylpyridin-6-yl)prop-2-yl]-3H-imidazo[4,5-b]pyridine]"
8,136,Cc1cc(N)nc(CCc2nc3cccnc3[nH]2)c1.Cl
9,230,"Cc1cc(N)nc(CCc2nc3cc(-c4ccccc4)cnc3[nH]2)c1 [compound 5, 2-[2-(2-Amino-4-methylpyridin-6-yl)ethyl]-6-phenyl-3H-imidazo[4,5-b]pyridine]"
10,186,Cc1ccc(-c2cnc3[nH]c(CCc4cc(C)cc(N)n4)nc3c2)cc1.Cl
11,162,"Cc1cc(N)nc(CCc2nc3cc(-c4cccc(O)c4)cnc3[nH]2)c1 [compound 16, 3-{2-[2-(6-Amino-4-methyl-pyridin-2-yl)-ethyl]-3H-imidazo[4,5-b]pyridin-6-yl}-phenol]"
12,224,"Cc1cc(N)nc(CCc2nc3cc(-c4cc(Cl)cc(Cl)c4)cnc3[nH]2)c1 [compound 14, 6-{2-[6-(3,5-Dichloro-phenyl)-3H-imidazo[4,5-b]pyridin-2-yl]-ethyl}-4-methyl-pyridin-2-ylamine]"
13,233,"Cc1cc(N)nc(CCc2nc3cc(-c4ccc(S(=O)(=O)N5CCCCC5)cc4)cnc3[nH]2)c1 [compound 19, 4-Methyl-6-(2-{6-[4-(piperidine-1-sulfonyl)-phenyl]-3H-imidazo[4,5-b]pyridin-2-yl}-ethyl)-pyridin-2-ylamine]"
14,218,"Cc1cc(N)nc(CCc2nc3cc(-c4ccc(C#N)cc4)cnc3[nH]2)c1 [compound 6, 2-[2-(2-Amino-4-methylpyridin-6-yl)ethyl]-6-(4-cyano-phenyl)-3H-imidazo[4,5-b]pyridine]"
15,216,"Cc1cc(N)nc(CCc2nc3cc(Br)cnc3[nH]2)c1 [compound 4, 2-[2-(2-Amino-4-methylpyridin-6-yl)ethyl]-6-bromo-3H-imidazo[4,5-b]pyridine]"
16,228 to 230,Cc1cc(N)nc(CCc2nc3cc(-c4ccc(Cl)cc4)cnc3[nH]2)c1.Cl
17,168,"Cc1cc(N)nc(CCc2nc3cc(-c4ccc(S(=O)(=O)N5CCC5)cc4)cnc3[nH]2)c1 [compound 17, 6-(2-{6-[4-(Azetidine-1-sulfonyl)-phenyl]-3H-imidazo[4,5-b]pyridin-2-yl}-ethyl)-4-methyl-pyridin-2-ylamine]"

# — US7781453B2, “Aminopyridine-derivatives” (Altana Pharma AG, priority 2003, dated 2010)
